Reference: PubChem BioAssay AID493085 (Broad Institute, 2011)
Results filed as inconclusive are left out. Activity calls are given as the source filed them.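 How the source made its calls: active means falling-signal curve with half-maximal concentration at or below ten times the top tested dose; inconclusive means flat fit at 30 to 70% inhibition, or poor fit; inactive means signal rise, flat within 30%, or potency beyond limit.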

Tested on: NIH3T3 R4 HSE-GFP/Tet-RFP reporter, fluorescence, 48 h
Assay: Tet-On RFP internal-standard readout, HSF1 screen, dose response, cell-based, NIH3T3 R4, HSE-GFP and Tet-On RFP, cherry-pick, set 3 (AID 493085);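 further: cells heat shocked 2 h at 42 °C with doxycycline to induce reporters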

S=C1Cc2ccccc2N1
AC50: 2.46 µM

N#CC1=C(N)Oc2cc(N)ccc2C1c1ccccc1Cl (stereo unspecified)
AC50: > 19.5 µM (inactive)

CC12CCC(C/C1=N\N=C1\NC(=O)/C(=C\c3ccc(Cl)cc3)S1)C2(C)C (stereo unspecified)
AC50: 1.82 µM

CC1CC(C)CN(C(=O)c2ccc(CSc3nc4ccncc4[nH]3)cc2)C1 (stereo unspecified)
AC50: 13.3 µM

O=c1c(Cl)c(Cl)cnn1-c1ccccc1
AC50: 14.4 µM

CSc1ccc(CN(C)Cc2cc(=O)oc3c(C)c(C)ccc23)cc1
AC50: 17.1 µM

CC1CCCCN1CC(=O)Nc1ccccc1Sc1ccccc1 (stereo unspecified)
AC50: 15.1 µM

O=C(CCl)N(c1ccccc1)C1CCCCC1
AC50: 4.93 µM

CCOC(=O)c1ccc(-n2[nH]c(-c3ccccc3)cc2=O)cc1
AC50: 4.13 µM

C#CC(=O)N(c1cc(OC)ccc1OC)C(C(=O)NC1CCCC1)c1cccs1 (stereo unspecified)
AC50: 5.39 µM

N#CCc1nn(-c2ccccc2)c2ncnc(N)c12
AC50: > 19.5 µM (inactive)

CCS(=O)(=O)c1ncc(Cl)c(C(=O)Nc2ccc(S(=O)(=O)N3CCC(C)CC3)cc2)n1
AC50: 16.2 µM

COc1ccc(CN2CCC(C(=O)Nc3ccc(Oc4cccnc4)cc3)CC2)c(C)c1C
AC50: 17.2 µM

COc1ccc2c(c1)c(CC(=O)Nc1nnc(C3CC3)s1)c(C)n2C(=O)c1ccc(Cl)cc1
AC50: 0.284 µM

Cc1cc([N+](=O)[O-])c2ccccc2[n+]1[O-]
AC50: 15.6 µM

CCCCCn1c(=O)c(C(=O)Nc2ccccn2)c(O)c2ccccc21
AC50: 1.4 µM

COc1ccc(S(=O)(=O)N2CCCCCC2)cc1C(=O)OCC(=O)NC(C)(C)C
AC50: > 19.5 µM (inactive)

COc1ccc(OCc2cccc(C(=O)Nn3cc([N+](=O)[O-])cn3)c2)cc1
AC50: 9.72 µM

Cc1sc2ncnc(NCCc3ccc(S(N)(=O)=O)cc3)c2c1C
AC50: 0.185 µM

COc1cccc(CN(C)CC(=O)Nc2cccc(C(F)(F)F)c2)c1OC
AC50: 18.8 µM

CCN1C/C(=C/c2ccc(OC)c(O)c2)C(=O)/C(=C/c2ccc(OC)c(O)c2)C1
AC50: 1.8 µM

c1ccc(OCCSc2nc3ccccc3o2)cc1
AC50: > 19.5 µM (inactive)

CCCC(=O)N1CCN(c2ccc(NC(=O)c3cc4ccccc4o3)cc2Cl)CC1
AC50: 13.1 µM

CCc1cc(C)cc(OCCNC(=O)c2cncc(Br)c2)c1
AC50: > 19.5 µM (inactive)

c1ccc2c(c1)OCC(c1csc3ncnc(N4CCOCC4)c13)O2 (stereo unspecified)
AC50: 16.6 µM

CC[C@H]1CN2CCc3cc(OC)c(OC)cc3[C@@H]2C[C@@H]1C[C@H]1NCCc2cc(OC)c(OC)cc21
AC50: 0.549 µM

CC(C)(C)C(=O)NC(=S)NNC(=O)c1sc2ccccc2c1Cl
AC50: > 19.5 µM (inactive)

CCc1ccc(C(=O)Cn2ncc(Cl)c(Cl)c2=O)cc1
AC50: 18.6 µM

O=C(NCc1ccncc1)C(=O)Nc1nc(C23CC4CC(CC(C4)C2)C3)cs1
AC50: 12 µM

COc1cc2c(cc1OC)C(c1ccc(-c3ccc(Cl)c(Cl)c3)o1)=NCC2
AC50: 18.8 µM

CCOC(=O)c1sc(NC(=O)CSc2n[nH]c(-c3ccccc3)n2)c(C#N)c1C
AC50: 14.6 µM

CCCCn1c(C(C)NC(=O)CC)nc2ccccc21 (stereo unspecified)
AC50: > 19.5 µM (inactive)

Cc1cc(C)c2nc(C(F)(F)F)c(C#N)c(N)c2c1
AC50: 1.54 µM

COc1ccc2[nH]c3c(=O)n(CCCN4CCOCC4)cnc3c2c1
AC50: > 19.5 µM (inactive)

N#CC1=C(N)C(C#N)(C#N)C(c2cccnc2)C2CC(c3ccccc3)CC=C12 (stereo unspecified)
AC50: 19.2 µM

CN(C)c1ccc(CNc2ccc3c(c2)ncn3C(C)(C)C)cc1
AC50: > 19.5 µM (inactive)

CC1=NNC(=O)/C1=C\c1cn(-c2ccccc2)nc1-c1ccc(Cl)cc1
AC50: 17.4 µM

CCOc1ccc(-n2c(C)c(C(C)=O)c3cc(OC(C)=O)ccc32)cc1
AC50: 2.24 µM

CCc1ccc(C2=NNC(=Nc3cccc(S(=O)(=O)N(C)C)c3)SC2)cc1
AC50: 2 µM

CC(=O)c1ccc(NC(=O)C2CCN(S(=O)(=O)c3cccc4cccnc34)CC2)cc1
AC50: > 19.5 µM (inactive)

O=C(NCCN1CCCCC1)Nc1ccccc1Cl
AC50: > 19.5 µM (inactive)

Cc1ccc(S(=O)(=O)c2ncccc2[N+](=O)[O-])cc1
AC50: 16.5 µM

CC1=C(C(=O)OCc2ccc3c(c2)OCO3)C(c2ccc(F)cc2)NC(=O)N1 (stereo unspecified)
AC50: 0.27 µM

Cc1occc1C(=O)Nc1cc(C(F)(F)F)ccc1Cl
AC50: > 19.5 µM (inactive)

CC(C)c1ccc(-c2nc3ccccc3s2)cc1
AC50: > 19.5 µM (inactive)

O=C(NCc1ccc2c(c1)OCO2)c1nc(S(=O)(=O)Cc2ccccc2)ncc1Cl
AC50: 16.1 µM

CCOc1cc(/C=N/NC(=O)c2cccc(S(=O)(=O)N3CCOCC3)c2)ccc1OCC(=O)N(C)C
AC50: > 19.5 µM (inactive)

COc1ccc(NC(=O)CSc2nnc3ccc(-c4ccncc4)nn23)cc1OC
AC50: > 19.5 µM (inactive)

CCc1ccc(S(=O)(=O)/N=C2\C=C(Nc3ccc(O)cc3)C(=O)c3ccccc32)cc1
AC50: 1.83 µM

Cn1c(-c2nonc2N)nc2ccccc21
AC50: > 19.5 µM (inactive)

Cc1nc(NCc2ccco2)c2c(C)c(C)sc2n1
AC50: 0.435 µM

Cc1ccc(S(=O)(=O)N2CCN(CC(=O)N/N=C\c3ccncc3)CC2)cc1
AC50: > 19.5 µM (inactive)

Nc1nc(F)nc2c1ncn2[C@@H]1O[C@H](CO)[C@@H](O)[C@H]1O
AC50: 0.981 µM

CCOC(=O)Cc1nnc2c(Nc3ccccc3F)nc3nonc3n12
AC50: 2.32 µM

Cn1c(C(C#N)C(=O)c2sc3ccccc3c2Cl)nc2ccccc21 (stereo unspecified)
AC50: > 19.5 µM (inactive)

O=C(N/N=C/c1ccc[nH]1)c1ccc(COc2cccc3cccnc23)cc1
AC50: 0.821 µM

Cc1cc(C)c(NC(=O)CSc2nncn2-c2cccnc2)c(C)c1
AC50: > 19.5 µM (inactive)

COc1ccccc1N(C)S(=O)(=O)c1ccc(C(=O)NC(C)c2ccccc2)cc1 (stereo unspecified)
AC50: > 19.5 µM (inactive)

COC(=O)/C(=C1/Oc2cc(C)oc(=O)c2S1)C(F)(F)F
AC50: 1.5 µM

O=C(CCl)Nc1ccc(Sc2ccc(NC(=O)CCl)cc2)cc1
AC50: 18.3 µM

CC1CCc2nc(N)c(C#N)c(-c3cccnc3)c2C1 (stereo unspecified)
AC50: 0.708 µM

O=c1cc(-c2ccccc2)c2ccc(O)cc2o1
AC50: > 19.5 µM (inactive)

NC(=O)c1sc2nc3c(c(-c4cccs4)c2c1N)CCCCC3
AC50: 0.404 µM

OCCCNc1nccc(-c2cc(Nc3cccc(Cl)c3)ncn2)n1
AC50: 0.354 µM

Cn1c(=O)c([N+](=O)[O-])c(Cl)c2ccccc21
AC50: 11.4 µM

O=C(CNC(=S)N(CCCN1CCOCC1)Cc1cccs1)NCc1ccccc1Cl
AC50: > 19.5 µM (inactive)

Cc1ccccc1NC(=O)COC(=O)c1ccc(S(C)(=O)=O)c([N+](=O)[O-])c1
AC50: 18.3 µM

Oc1ccc(CN2CCCc3ccccc32)c2cccnc12
AC50: 4.67 µM

COc1ccc(OC)c2c1C(=O)C(Cl)=C(Cl)C2=O
AC50: 2.29 µM

CCOC(=O)COc1ccccc1/C=C\[N+](=O)[O-]
AC50: 5.63 µM

O=C(CCl)Nc1cn(-c2ccccc2)nc1-c1ccc(F)cc1
AC50: 5.82 µM

NNC(=O)c1ccc(N2CCc3ccccc32)c([N+](=O)[O-])c1
AC50: > 19.5 µM (inactive)

COc1ccc(N2CCN(C(CNC(=O)C(=O)NCc3ccncc3)c3ccco3)CC2)cc1 (stereo unspecified)
AC50: > 19.5 µM (inactive)

CC1C/C(=N/Nc2nc3ccccc3[nH]2)CC(C)(C)C1 (stereo unspecified)
AC50: > 19.5 µM (inactive)

Cc1nc2c(-c3ccccc3)cnn2c(N)c1-c1ccccc1
AC50: > 19.5 µM (inactive)

Cc1cc(C)nc(NNC2=CC(=[N+]3CCCCC3)CC(C)(C)C2)n1
AC50: 14.5 µM

CN=c1scc(-c2ccco2)n1/N=C/c1ccc(O)c(O)c1
AC50: 3.01 µM

CCOC(=O)N=Nc1c2ccccc2c2nc3no[nH]c3nc12
AC50: 1.91 µM

CC(=O)c1cn(CC(=O)Nc2ccccc2C)c2ccccc12
AC50: 2.59 µM

COc1ccc(C(=O)c2c(C(F)(F)F)oc3c2C(=O)c2ccccc2C3=O)cc1
AC50: 2.89 µM

COc1ccc(N(Cc2cc3cc(OC)ccc3[nH]c2=O)S(=O)(=O)c2ccc(NC(C)=O)cc2)cc1
AC50: 14.3 µM

Cc1ccc(-c2cn(-c3ccccc3)c(=S)[nH]2)cc1C
AC50: > 19.5 µM (inactive)

CC(=O)OCCCNc1cc(Sc2ccc(C)cc2)c2nonc2c1[N+](=O)[O-]
AC50: 18.7 µM

Cc1ccc(C)c(NC(=O)CCc2nnc3ccc(NCc4ccco4)nn23)c1
AC50: > 19.5 µM (inactive)

Nc1ncnc2c1ccn2[C@@H]1O[C@H](CO)[C@@H](O)[C@H]1O
AC50: 3.17 µM

O=C(Nc1nnc(S(=O)(=O)N2CCCCCC2)s1)c1cccc(Br)c1
AC50: 0.889 µM

COc1ccc(NCc2nnc(SCC(=O)Nc3cc(C(F)(F)F)ccc3Cl)o2)cc1
AC50: > 19.5 µM (inactive)

O=C(Nc1nc(-c2cccs2)cs1)c1cccc(S(=O)(=O)N2CCCCCC2)c1
AC50: 0.674 µM

CCc1ccccc1NC(=O)CSc1nnc(-c2ccncc2)o1
AC50: > 19.5 µM (inactive)

Cc1[nH]c2ccccc2c1/C=C/c1nc2ccccc2c(=O)n1-c1cccc([N+](=O)[O-])c1
AC50: > 19.5 µM (inactive)

COc1ccccc1-c1cc(C(F)(F)F)nc(S(=O)(=O)CCCC(=O)NCc2ccc(F)cc2)n1
AC50: 5.34 µM

O=C(c1nnsc1S(=O)(=O)c1ccc(Cl)cc1)N1CCOCC1
AC50: 17.3 µM

O=C(CCCCCn1c(=S)[nH]c2cc3c(cc2c1=O)OCO3)N1CCN(C(=O)c2ccco2)CC1
AC50: > 19.5 µM (inactive)

O=C(O)c1ccc(NC2=C(Cl)C(=O)c3ccccc3C2=O)cc1
AC50: 18.6 µM

COc1c(N2CCN(C(=S)NC3CC4CCC3C4)C(C)C2)c(F)cc2c(=O)c(C(=O)O)cn(C3CC3)c12 (stereo unspecified)
AC50: 17.9 µM

COc1ccc(CNC(=O)c2cnc3scc(C)n3c2=O)cc1
AC50: > 19.5 µM (inactive)

COC(=O)c1c(N2C(=O)[C@H]3[C@@H](C2=O)[C@]2(C(=O)Nc4c(C)cccc42)N2CCC[C@@H]32)sc(C)c1C
AC50: > 19.5 µM (inactive)

CCOc1cc2c(cc1OCC)C(c1ccc(OC)cc1)N(c1ccccc1)C(=O)C2 (stereo unspecified)
AC50: > 19.5 µM (inactive)

N#Cc1cccc(C#N)c1Oc1ccc(S(=O)(=O)Nc2ccc(Cl)cc2)cc1
AC50: 18.8 µM

CCCCn1c(=O)[nH]c(=O)c2c1nc(Cn1ncc(Cl)c(Cl)c1=O)n2CCC
AC50: 18.2 µM

COc1ccccc1NC(=O)c1nc(S(=O)(=O)Cc2ccccc2)ncc1Cl
AC50: 4.02 µM

CCCCCCc1cc2cc(S(=O)(=O)c3ccc(F)c(Cl)c3)c(=O)oc2cc1O
AC50: 1.52 µM

O=S(=O)(Nc1cccc(Oc2cnccn2)c1)c1ccc(F)cc1
AC50: > 19.5 µM (inactive)

CCN(CC)c1ncnc2ccc(Br)cc12
AC50: 19.9 µM

CC(C)(C)c1nn(-c2ccccc2)c2[nH]c(=O)c(CNc3ccc4c(c3)OCCO4)cc12
AC50: > 19.5 µM (inactive)

CCC(Sc1nc(C)cc(C)n1)C(=O)NC1=NN=C(c2ccc(C)cc2)CS1 (stereo unspecified)
AC50: 14.8 µM
